Key:
Test in all cases: KINOMEscan competition binding
Details in all cases: compound 10.0 µM
[1] = molecular target: ULK1 (human) (UniProt O75385)
[2] = molecular target: MAPK9 (human) (UniProt P45984)
[3] = molecular target: DSTYK (human) (UniProt Q6XUX3)
[4] = molecular target: CSNK1G1 (human) (UniProt Q9HCP0)
[5] = molecular target: NIM1 (human) (UniProt Q8IY84)
[6] = molecular target: MARK3 (human) (UniProt P27448)
[7] = molecular target: ROS1 (human) (UniProt P08922)
[8] = molecular target: CDK19 (human) (UniProt Q9BWU1)
[9] = molecular target: HUNK (human) (UniProt P57058)
[10] = molecular target: RPS6KA1 KD2 (human) (UniProt Q15418)
[11] = molecular target: EPHA5 (human) (UniProt P54756)
[12] = molecular target: DYRK1A (human) (UniProt Q13627)
[13] = molecular target: PRKACA (human) (UniProt P17612)
[14] = molecular target: PDGFRB (human) (UniProt P09619)
Chain of PDGFRB (human) (P09619 whole entry, looked up): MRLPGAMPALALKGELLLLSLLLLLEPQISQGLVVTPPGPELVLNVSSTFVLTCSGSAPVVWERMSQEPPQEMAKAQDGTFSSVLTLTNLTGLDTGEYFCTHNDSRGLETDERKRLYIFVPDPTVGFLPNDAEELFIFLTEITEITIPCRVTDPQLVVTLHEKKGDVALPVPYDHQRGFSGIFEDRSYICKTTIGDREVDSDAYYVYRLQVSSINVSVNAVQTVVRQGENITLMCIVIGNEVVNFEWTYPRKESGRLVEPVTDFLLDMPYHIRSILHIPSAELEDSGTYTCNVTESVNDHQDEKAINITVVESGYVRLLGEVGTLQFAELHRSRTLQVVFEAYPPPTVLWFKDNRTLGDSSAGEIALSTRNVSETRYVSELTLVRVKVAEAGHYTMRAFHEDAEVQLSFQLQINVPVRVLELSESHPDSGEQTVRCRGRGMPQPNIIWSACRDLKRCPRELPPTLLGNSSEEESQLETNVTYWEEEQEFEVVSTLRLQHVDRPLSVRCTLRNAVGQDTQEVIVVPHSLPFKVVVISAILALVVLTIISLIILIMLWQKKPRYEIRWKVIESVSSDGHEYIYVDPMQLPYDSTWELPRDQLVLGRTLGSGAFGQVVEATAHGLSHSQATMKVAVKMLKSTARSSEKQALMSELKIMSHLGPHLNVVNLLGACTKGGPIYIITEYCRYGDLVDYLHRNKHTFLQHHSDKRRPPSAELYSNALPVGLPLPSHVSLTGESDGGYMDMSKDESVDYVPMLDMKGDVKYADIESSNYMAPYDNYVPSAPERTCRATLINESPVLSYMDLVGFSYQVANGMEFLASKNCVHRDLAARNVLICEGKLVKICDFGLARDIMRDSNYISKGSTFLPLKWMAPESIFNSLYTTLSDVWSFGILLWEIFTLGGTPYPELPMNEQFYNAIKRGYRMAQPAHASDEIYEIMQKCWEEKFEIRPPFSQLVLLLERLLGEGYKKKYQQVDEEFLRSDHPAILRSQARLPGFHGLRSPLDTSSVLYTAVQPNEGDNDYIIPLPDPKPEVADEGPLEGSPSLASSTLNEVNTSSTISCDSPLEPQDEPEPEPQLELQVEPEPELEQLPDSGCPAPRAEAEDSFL

[15] = molecular target: FYN (human) (UniProt P06241)
[16] = molecular target: MAP4K3 (human) (UniProt Q8IVH8)
[17] = molecular target: BTK (human) (UniProt Q06187)
[18] = molecular target: PLK3 (human) (UniProt Q9H4B4)
[19] = molecular target: TAOK1 (human) (UniProt Q7L7X3)
[20] = system: KIT (human), P10721 [A829P]
Chain of KIT (human), P10721 [A829P] (P10721 whole entry A829P, looked up): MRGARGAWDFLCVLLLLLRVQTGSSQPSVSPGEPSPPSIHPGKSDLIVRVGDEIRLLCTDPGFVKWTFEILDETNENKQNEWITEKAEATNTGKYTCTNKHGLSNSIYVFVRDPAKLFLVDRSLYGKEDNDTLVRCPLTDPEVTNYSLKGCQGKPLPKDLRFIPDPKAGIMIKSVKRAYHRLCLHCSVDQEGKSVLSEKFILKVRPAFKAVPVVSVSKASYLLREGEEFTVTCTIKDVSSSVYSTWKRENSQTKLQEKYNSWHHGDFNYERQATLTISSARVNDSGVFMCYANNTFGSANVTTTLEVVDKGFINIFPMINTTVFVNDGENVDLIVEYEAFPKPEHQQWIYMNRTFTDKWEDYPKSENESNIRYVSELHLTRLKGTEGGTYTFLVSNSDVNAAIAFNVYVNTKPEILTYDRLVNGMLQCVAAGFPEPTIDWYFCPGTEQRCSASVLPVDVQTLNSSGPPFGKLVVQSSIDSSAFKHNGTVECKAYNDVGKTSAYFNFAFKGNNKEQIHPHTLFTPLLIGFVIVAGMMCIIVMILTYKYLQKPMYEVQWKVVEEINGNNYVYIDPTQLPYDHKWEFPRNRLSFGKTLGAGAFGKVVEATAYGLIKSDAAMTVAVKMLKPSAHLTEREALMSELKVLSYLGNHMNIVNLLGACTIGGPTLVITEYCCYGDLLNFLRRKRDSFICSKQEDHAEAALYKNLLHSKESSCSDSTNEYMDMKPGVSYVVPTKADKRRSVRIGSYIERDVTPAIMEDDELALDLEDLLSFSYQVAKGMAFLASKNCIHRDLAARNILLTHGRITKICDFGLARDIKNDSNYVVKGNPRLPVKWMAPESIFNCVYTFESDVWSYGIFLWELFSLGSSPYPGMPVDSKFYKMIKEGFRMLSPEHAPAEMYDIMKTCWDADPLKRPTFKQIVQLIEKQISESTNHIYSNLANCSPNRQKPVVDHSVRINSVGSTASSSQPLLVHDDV

[21] = molecular target: AURKA (human) (UniProt O14965)
Chain of AURKA (human) (O14965 whole entry, looked up): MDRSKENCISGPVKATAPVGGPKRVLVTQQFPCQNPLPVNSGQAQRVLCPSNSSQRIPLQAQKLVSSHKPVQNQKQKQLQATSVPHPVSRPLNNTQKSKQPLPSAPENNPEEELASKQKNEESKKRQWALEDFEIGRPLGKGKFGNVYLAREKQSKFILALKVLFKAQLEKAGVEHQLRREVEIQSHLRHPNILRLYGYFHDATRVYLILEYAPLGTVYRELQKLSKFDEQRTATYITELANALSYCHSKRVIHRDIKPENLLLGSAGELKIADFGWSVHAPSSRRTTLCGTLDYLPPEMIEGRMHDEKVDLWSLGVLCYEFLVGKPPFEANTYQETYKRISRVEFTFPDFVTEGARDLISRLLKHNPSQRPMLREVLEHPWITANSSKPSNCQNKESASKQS

[22] = molecular target: GSK3A (human) (UniProt P49840)
[23] = molecular target: ERBB4 (human) (UniProt Q15303)
[24] = molecular target: CDC2L2 (human) (UniProt Q9UQ88)
Chain of CDC2L2 (human) (Q9UQ88 whole entry, looked up): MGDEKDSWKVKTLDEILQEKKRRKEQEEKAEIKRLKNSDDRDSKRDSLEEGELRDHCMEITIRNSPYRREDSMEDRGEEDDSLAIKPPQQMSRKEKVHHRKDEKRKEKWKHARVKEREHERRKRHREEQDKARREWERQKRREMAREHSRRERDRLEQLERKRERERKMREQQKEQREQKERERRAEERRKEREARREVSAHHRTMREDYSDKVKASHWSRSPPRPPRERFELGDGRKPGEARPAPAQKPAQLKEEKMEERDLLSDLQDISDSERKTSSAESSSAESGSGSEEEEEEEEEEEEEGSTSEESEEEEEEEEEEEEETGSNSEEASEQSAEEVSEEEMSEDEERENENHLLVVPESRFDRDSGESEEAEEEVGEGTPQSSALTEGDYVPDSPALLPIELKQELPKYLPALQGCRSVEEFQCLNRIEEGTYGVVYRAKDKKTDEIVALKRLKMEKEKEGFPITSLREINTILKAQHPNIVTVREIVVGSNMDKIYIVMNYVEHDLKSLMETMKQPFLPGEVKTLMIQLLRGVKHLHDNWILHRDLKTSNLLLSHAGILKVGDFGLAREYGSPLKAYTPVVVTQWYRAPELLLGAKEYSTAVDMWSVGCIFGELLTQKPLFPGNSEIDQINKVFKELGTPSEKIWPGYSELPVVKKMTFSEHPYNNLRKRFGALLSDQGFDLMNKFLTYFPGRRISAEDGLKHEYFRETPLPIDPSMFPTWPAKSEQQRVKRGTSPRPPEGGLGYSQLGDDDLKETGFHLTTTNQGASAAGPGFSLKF

[25] = molecular target: STK39 (human) (UniProt Q9UEW8)
[26] = molecular target: ULK2 (human) (UniProt Q8IYT8)
[27] = molecular target: NEK1 (human) (UniProt Q96PY6)
[28] = molecular target: LIMK1 (human) (UniProt P53667)
[29] = molecular target: ROCK2 (human) (UniProt O75116)
[30] = molecular target: JAK1 JH2 pseudokinase (human) (UniProt P23458)
[31] = molecular target: TGFBR1 (human) (UniProt P36897)
Chain of TGFBR1 (human) (P36897 whole entry, looked up): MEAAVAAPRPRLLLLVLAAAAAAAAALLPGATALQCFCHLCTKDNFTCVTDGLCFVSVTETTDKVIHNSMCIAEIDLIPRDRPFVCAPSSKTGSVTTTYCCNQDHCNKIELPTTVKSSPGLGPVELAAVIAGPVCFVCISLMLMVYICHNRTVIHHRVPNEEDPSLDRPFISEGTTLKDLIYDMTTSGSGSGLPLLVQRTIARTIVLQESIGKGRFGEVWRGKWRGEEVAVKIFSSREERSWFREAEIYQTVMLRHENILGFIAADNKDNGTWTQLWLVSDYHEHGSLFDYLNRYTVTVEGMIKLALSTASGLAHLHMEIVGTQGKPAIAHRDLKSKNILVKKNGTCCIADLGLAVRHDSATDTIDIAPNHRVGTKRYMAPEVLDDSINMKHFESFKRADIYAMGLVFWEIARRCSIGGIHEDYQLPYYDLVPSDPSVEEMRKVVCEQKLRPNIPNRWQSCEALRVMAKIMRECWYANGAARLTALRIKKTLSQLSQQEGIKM

[32] = molecular target: PIP4K2C (human) (UniProt Q8TBX8)
[33] = molecular target: HIPK3 (human) (UniProt Q9H422)
[34] = molecular target: RPS6KA2 KD1 (human) (UniProt Q15349)
[35] = molecular target: MYLK2 (human) (UniProt Q9H1R3)
[36] = molecular target: MLTK (human) (UniProt Q9NYL2)
[37] = molecular target: PIP4K2B (human) (UniProt P78356)
[38] = molecular target: MAP3K2 (human) (UniProt Q9Y2U5)
[39] = molecular target: PI4KB (human) (UniProt Q9UBF8)
[40] = molecular target: EGFR (human) (UniProt P00533)

Chain of MARK3 (human) (P27448 whole entry, looked up): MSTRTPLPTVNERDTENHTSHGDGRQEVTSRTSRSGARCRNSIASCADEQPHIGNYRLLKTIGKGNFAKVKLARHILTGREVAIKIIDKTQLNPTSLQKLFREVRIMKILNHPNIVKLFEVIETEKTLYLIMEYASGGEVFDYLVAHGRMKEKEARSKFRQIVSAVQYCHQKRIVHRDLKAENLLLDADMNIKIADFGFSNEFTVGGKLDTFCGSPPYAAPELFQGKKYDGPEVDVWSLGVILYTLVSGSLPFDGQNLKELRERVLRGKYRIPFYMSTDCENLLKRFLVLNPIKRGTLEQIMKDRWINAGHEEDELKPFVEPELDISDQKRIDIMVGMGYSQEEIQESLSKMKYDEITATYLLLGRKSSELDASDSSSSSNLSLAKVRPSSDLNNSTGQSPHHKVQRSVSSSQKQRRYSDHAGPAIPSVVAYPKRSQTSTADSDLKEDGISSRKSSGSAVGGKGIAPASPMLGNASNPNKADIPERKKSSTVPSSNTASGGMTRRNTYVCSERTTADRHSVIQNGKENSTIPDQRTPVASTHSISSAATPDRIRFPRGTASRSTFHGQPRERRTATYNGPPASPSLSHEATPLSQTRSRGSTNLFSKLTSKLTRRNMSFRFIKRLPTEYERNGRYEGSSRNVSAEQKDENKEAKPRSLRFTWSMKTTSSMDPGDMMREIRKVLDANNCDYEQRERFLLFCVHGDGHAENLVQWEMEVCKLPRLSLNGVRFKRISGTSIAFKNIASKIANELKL
Chain of CSNK1G1 (human) (Q9HCP0 whole entry, looked up): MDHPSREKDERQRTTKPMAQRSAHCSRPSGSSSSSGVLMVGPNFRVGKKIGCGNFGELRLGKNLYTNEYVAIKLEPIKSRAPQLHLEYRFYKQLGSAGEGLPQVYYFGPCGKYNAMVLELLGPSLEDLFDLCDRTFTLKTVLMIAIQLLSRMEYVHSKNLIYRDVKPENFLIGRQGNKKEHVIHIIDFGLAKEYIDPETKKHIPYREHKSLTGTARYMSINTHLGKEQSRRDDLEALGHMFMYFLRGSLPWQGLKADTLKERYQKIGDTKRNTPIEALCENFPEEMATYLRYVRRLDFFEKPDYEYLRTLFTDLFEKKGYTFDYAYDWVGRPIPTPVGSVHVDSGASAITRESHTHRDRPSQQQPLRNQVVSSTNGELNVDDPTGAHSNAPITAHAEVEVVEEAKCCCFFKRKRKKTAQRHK

N#C/C(=C1/Nc2ccccc2S1)c1ccnc(NCCc2cccnc2)n1
kinase still bound, per cent of control [1]: 36%
kinase still bound, per cent of control [2]: 0.25%
kinase still bound, per cent of control [3]: 51%
kinase still bound, per cent of control [4]: 42%
kinase still bound, per cent of control [5]: 100%
kinase still bound, per cent of control [6]: 100%
kinase still bound, per cent of control [7]: 100%
kinase still bound, per cent of control [8]: 100%
kinase still bound, per cent of control [9]: 92%
kinase still bound, per cent of control [10]: 27%
kinase still bound, per cent of control [11]: 99%
kinase still bound, per cent of control [12]: 0%
kinase still bound, per cent of control [13]: 100%
kinase still bound, per cent of control [14]: 64%
kinase still bound, per cent of control [15]: 100%
kinase still bound, per cent of control [16]: 80%
kinase still bound, per cent of control [17]: 77%
kinase still bound, per cent of control [18]: 12%
kinase still bound, per cent of control [19]: 38%
kinase still bound, per cent of control [20]: 73%
kinase still bound, per cent of control [21]: 100%
kinase still bound, per cent of control [22]: 0.6%
kinase still bound, per cent of control [23]: 63%
kinase still bound, per cent of control [24]: 85%
kinase still bound, per cent of control [25]: 100%
kinase still bound, per cent of control [26]: 83%
kinase still bound, per cent of control [27]: 57%
kinase still bound, per cent of control [28]: 78%
kinase still bound, per cent of control [29]: 23%
kinase still bound, per cent of control [30]: 2.6%
kinase still bound, per cent of control [31]: 100%
kinase still bound, per cent of control [32]: 3.7%
kinase still bound, per cent of control [33]: 0.25%
kinase still bound, per cent of control [34]: 100%
kinase still bound, per cent of control [35]: 100%
kinase still bound, per cent of control [36]: 97%
kinase still bound, per cent of control [37]: 26%
kinase still bound, per cent of control [38]: 100%
kinase still bound, per cent of control [39]: 20%

COc1cc2c(Nc3ccc(NC(=O)c4ccccc4)cc3)ncnc2cc1OCCCN1CCOCC1
kinase still bound, per cent of control [1]: 48%
kinase still bound, per cent of control [2]: 27%
kinase still bound, per cent of control [3]: 34%
kinase still bound, per cent of control [4]: 97%
kinase still bound, per cent of control [40]: 0.65%
kinase still bound, per cent of control [5]: 100%
kinase still bound, per cent of control [6]: 96%
kinase still bound, per cent of control [7]: 41%
kinase still bound, per cent of control [8]: 100%
kinase still bound, per cent of control [9]: 81%
kinase still bound, per cent of control [10]: 72%
kinase still bound, per cent of control [11]: 100%
kinase still bound, per cent of control [12]: 58%
kinase still bound, per cent of control [13]: 100%
kinase still bound, per cent of control [14]: 1.1%
kinase still bound, per cent of control [15]: 55%
kinase still bound, per cent of control [16]: 70%
kinase still bound, per cent of control [17]: 7.3%
kinase still bound, per cent of control [18]: 99%
kinase still bound, per cent of control [19]: 95%
kinase still bound, per cent of control [20]: 59%
kinase still bound, per cent of control [21]: 8.6%
kinase still bound, per cent of control [22]: 100%
kinase still bound, per cent of control [23]: 0.65%
kinase still bound, per cent of control [24]: 6.9%
kinase still bound, per cent of control [25]: 100%
kinase still bound, per cent of control [26]: 91%
kinase still bound, per cent of control [27]: 81%
kinase still bound, per cent of control [28]: 100%
kinase still bound, per cent of control [29]: 34%
kinase still bound, per cent of control [30]: 32%
kinase still bound, per cent of control [31]: 100%
kinase still bound, per cent of control [32]: 53%
kinase still bound, per cent of control [33]: 52%
kinase still bound, per cent of control [34]: 84%
kinase still bound, per cent of control [35]: 100%
kinase still bound, per cent of control [36]: 34%
kinase still bound, per cent of control [37]: 100%
kinase still bound, per cent of control [38]: 28%
kinase still bound, per cent of control [39]: 100%

CC1=C(C(=O)Nc2cc3cn[nH]c3cc2F)C(c2ccc(C(F)(F)F)cc2)CC(=O)N1 (stereo not drawn)
kinase still bound, per cent of control [1]: 74%
kinase still bound, per cent of control [2]: 92%
kinase still bound, per cent of control [3]: 69%
kinase still bound, per cent of control [4]: 100%
kinase still bound, per cent of control [40]: 40%
kinase still bound, per cent of control [5]: 86%
kinase still bound, per cent of control [6]: 100%
kinase still bound, per cent of control [7]: 100%
kinase still bound, per cent of control [8]: 80%
kinase still bound, per cent of control [9]: 100%
kinase still bound, per cent of control [10]: 83%
kinase still bound, per cent of control [11]: 86%
kinase still bound, per cent of control [12]: 100%
kinase still bound, per cent of control [14]: 70%
kinase still bound, per cent of control [15]: 82%
kinase still bound, per cent of control [16]: 77%
kinase still bound, per cent of control [17]: 14%
kinase still bound, per cent of control [18]: 84%
kinase still bound, per cent of control [19]: 53%
kinase still bound, per cent of control [20]: 58%
kinase still bound, per cent of control [21]: 46%
kinase still bound, per cent of control [22]: 100%
kinase still bound, per cent of control [23]: 41%
kinase still bound, per cent of control [24]: 96%
kinase still bound, per cent of control [25]: 86%
kinase still bound, per cent of control [26]: 85%
kinase still bound, per cent of control [27]: 91%
kinase still bound, per cent of control [28]: 100%
kinase still bound, per cent of control [29]: 0.1%
kinase still bound, per cent of control [30]: 100%
kinase still bound, per cent of control [31]: 100%
kinase still bound, per cent of control [32]: 98%
kinase still bound, per cent of control [33]: 85%
kinase still bound, per cent of control [34]: 95%
kinase still bound, per cent of control [35]: 99%
kinase still bound, per cent of control [36]: 92%
kinase still bound, per cent of control [37]: 100%
kinase still bound, per cent of control [38]: 79%
kinase still bound, per cent of control [39]: 100%
